Experimental data from patent US20140051679A1, “KINASE INHIBITORS AND METHOD OF TREATING CANCER WITH SAME” (UNIVERISTY HEALTH NETWORKS, priority 2011, published 2014).
pIC50: −log10 of the molar value.

Tests used:
[1] = system: OVCAR-3 ovarian cancer cells; experiment: Cell growth inhibition, Sulforhodamine B assay, OVCAR-3; assay type: cell-based; conditions: Homo sapiens, 120 h, 5 days culture, SRB assay, read-out: Cell Line GI50 Range OVCAR-3
Method: (§1) Breast cancer cells (MDA-MB-231, MDA-MB-468), colon cancer cells (HCT116, HT29) and ovarian cancer cells (PA-1, OVCAR-3) were seeded (1000 to 4000 in 80 μl per well depending on the cell growth rate) into 96 well plates 24 hours before compound overlay. Compounds were prepared as 10 mM stock solutions in 100% DMSO which were diluted with DMEM (Dulbecco's Modified Eagle's Medium) cell growth Medium (Invitrogen, Burlington, ON, Canada) containing 10% FBS (Fetal Bovine Serum) to concentrations ranging from 50 nM to 250 μM. Aliquots (20 μl) from each concentration were overlaid to 80 μl of the pre-seeded cells in the 96 well plates to make final concentrations of 10 nM to 50 μM. The cells were cultured for 5 days before the Sulforhodamine B assay (SRB) was performed to determine the compound's cell growth inhibition activity.
(§2) Sulforhodamine B (purchased from Sigma, Oakville, ON, Canada) is a water-soluble dye that binds to the basic amino acids of the cellular proteins. Thus, colorimetric measurement of the bound dye provides an estimate of the total protein mass that is related to the cell number. the cells are fixed in situ by gently aspirating off the culture media and adding 50 μl ice cold 10% Trichloroacetic Acid (TCA) per well and incubate at 4° C. for 30-60 min, The plates are washed with water five times and allowed to air dry for 5 min. Addition of 50 μl 0.4% (w/v) SRB solution in 1% (v/v) acetic acid to each well and incubatation for 30 min at RT completes the staining reaction. Following staining, plates are washed four times with 1% acetic acid to remove unbound dye and then allowed to air dry for 5 min. The stain is solubilized with 100 μl of 10 mM Tris pH 10.5 per well. Absorbance is read at 570 nm.
(§3) The percentage (%) of relative growth inhibition was calculated by comparing to DMSO treated only cells (100%). […] The GI50 was calculated using GraphPad PRISM software (GraphPad Software, Inc., San Diego, Calif., USA).

[2] = system: MDA-MB-231 breast cancer cells; experiment: Cell growth inhibition, Sulforhodamine B assay, MDA-MB-231; assay type: cell-based; conditions: Homo sapiens, 120 h, 5 days culture, SRB assay, read-out: Cell Line GI50 Range MDA-MB-231
[3] = system: PA-1 ovarian cancer cells; experiment: Cell growth inhibition, Sulforhodamine B assay, PA-1; assay type: cell-based; conditions: 120 h, 5 days culture, SRB assay, read-out: Cell Line GI50 Range PA-1
human TTK = target: T1, human TTK (Homo sapiens, UniProt P33981); experiment: TTK inhibition assay (indirect ELISA); assay type: biochemical; conditions: GST-TTK 0.68 nM, 16 μM ATP; read-out: IC50 Ranges TTK
T1 construct: amino terminal GST fusion of full length human TTK; purchased Invitrogen
T1 sequence (P33981 1-857): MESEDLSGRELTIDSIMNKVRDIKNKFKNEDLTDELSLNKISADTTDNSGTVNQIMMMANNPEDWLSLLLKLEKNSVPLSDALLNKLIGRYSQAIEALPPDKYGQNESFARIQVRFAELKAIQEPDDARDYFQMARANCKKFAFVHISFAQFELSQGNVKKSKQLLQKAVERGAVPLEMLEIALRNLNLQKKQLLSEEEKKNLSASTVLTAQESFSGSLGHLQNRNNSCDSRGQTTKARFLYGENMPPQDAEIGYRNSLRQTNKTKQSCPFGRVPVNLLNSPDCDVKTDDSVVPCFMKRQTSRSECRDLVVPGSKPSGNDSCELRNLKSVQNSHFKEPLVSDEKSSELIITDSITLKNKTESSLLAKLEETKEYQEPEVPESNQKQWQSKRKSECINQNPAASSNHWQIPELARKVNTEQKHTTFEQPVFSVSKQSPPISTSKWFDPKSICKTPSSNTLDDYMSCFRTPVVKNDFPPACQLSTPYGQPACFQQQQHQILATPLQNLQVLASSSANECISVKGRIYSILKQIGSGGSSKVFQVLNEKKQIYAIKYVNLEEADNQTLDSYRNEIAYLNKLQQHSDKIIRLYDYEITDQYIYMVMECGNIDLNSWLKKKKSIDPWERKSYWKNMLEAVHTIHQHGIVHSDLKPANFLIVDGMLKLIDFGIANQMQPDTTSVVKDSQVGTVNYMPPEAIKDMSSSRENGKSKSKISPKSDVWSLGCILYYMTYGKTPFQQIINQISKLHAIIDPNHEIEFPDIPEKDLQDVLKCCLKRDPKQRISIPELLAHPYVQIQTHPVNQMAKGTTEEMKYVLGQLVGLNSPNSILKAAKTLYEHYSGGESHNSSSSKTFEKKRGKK
Method: Active TTK was purchased from Invitrogen as an amino terminal GST fusion of full length human TTK.
TTK activity was measured using an indirect ELISA detection system. GST-TTK (0.68 nM) was incubated in the presence of 16 μM ATP (Sigma cat#A7699), 50 mM Hepes pH 7.2, 1 mM EGTA, 10 mM MgCl2, and 0.1% Pluronic in a 96 well microtitre plate pre-coated with amino terminal 6 histidine, sumo tagged TTK (amino acid residues 1-275). The reaction was allowed to proceed for 30 minutes, followed by 5 washes of the plate with Wash Buffer (phosphate buffered saline supplemented with 0.2% Tween 20), and incubation for 30 minutes with a 1:3000 dilution of primary antibody (Cell Signaling cat#9381). The plate was washed 5 times with Wash Buffer, incubated for 30 minutes in the presence of secondary antibody coupled to horse radish peroxidase (BioRad cat#1721019, 1:3000 concentration), washed an additional 5 times with Wash Buffer, and incubated in the presence of TMB substrate (Sigma cat#T0440). The colourimetric reaction was allowed to continue for 5 minutes, followed by addition of stop solution (0.5 N sulphuric acid), and quantified by detection at 450 nm with either a monochromatic or filter based plate reader (Molecular Devices M5 or Beckman DTX880, respectively).
Compounds were pre-incubated in the presence of enzyme for 5 minutes prior to addition of ATP and the activity remaining quantified using the above described activity assay. The % Inhibition of a compound was determined using the following formula; % Inhibition=100×(1−(experimental value−background value)/(high activity control−background value)). The IC50 value was determined using a non-linear 4 point logistic curve fit (XLfit4, IDBS) with the formula; (A+(B/(1+((x/C)̂D)))), where A=background value, B=range, C=inflection point, D=curve fit parameter.

Aurora B = target: T2, Aurora B (Homo sapiens, UniProt Q96GD4); experiment: Aurora B inhibition assay (Z-Lyte); assay type: biochemical; conditions: 28 nM Aurora B, 128 μM ATP; read-out: IC50 Ranges Aurora B
T2 construct: purchased Invitrogen PV3970
T2 sequence (Q96GD4 whole entry): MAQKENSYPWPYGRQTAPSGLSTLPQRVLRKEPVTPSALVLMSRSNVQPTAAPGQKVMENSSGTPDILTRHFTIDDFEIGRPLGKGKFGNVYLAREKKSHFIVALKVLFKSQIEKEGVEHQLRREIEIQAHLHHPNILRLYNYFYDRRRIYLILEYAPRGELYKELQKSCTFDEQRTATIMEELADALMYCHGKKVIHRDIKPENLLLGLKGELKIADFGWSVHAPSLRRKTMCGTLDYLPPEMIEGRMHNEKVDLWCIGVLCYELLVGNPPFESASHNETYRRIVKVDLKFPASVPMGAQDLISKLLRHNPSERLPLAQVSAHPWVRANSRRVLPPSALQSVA
Method: Aurora B inhibition was determined using the Z-Lyte assay kit from Invitrogen. The assay was performed using the recommended manufacturer's instructions with 128 μM ATP and 28 nM Aurora B (Invitrogen cat #PV3970). The % inhibition values were determined according to the manufacturer's directions and IC50 values were obtained using a non-linear 4 point logistic curve fit (XLfit4, IDBS)

human PLK4 = target: T3, human PLK4 (Homo sapiens, UniProt O00444); experiment: PLK4 inhibition assay (indirect ELISA); assay type: biochemical; conditions: GST-PLK4 4 nM, 15 μM ATP; read-out: IC50 Ranges PLK4
T3 construct: amino terminal GST fusion of residues 1-391 of human PLK4; made in house; host or cells: E. coli
T3 sequence (O00444 1-391): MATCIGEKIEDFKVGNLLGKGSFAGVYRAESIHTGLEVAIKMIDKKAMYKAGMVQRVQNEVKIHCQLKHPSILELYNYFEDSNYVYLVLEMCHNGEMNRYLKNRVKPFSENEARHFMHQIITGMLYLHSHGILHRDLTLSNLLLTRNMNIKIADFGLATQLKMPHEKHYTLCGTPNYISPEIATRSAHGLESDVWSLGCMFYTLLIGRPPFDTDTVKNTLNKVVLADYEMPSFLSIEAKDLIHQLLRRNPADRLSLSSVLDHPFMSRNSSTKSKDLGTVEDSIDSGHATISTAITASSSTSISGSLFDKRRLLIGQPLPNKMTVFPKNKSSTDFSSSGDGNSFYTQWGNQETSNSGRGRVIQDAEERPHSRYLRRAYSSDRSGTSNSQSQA
Outline: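 Dephosphorylated GST-tagged human PLK4 (residues 1-391, E. coli), 4 nM, preincubated 15 min with compound, then reacted 30 min with 15 μM ATP on MBP-coated plates (50 mM HEPES pH 7.5, 10 mM MgCl2, 0.01% Brij 35). Phospho-MBP detected by antibody ELISA at 450 nm. Tested at 10 μM or 10-point titrations; IC50 from 4-parameter logistic fit.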

HT29 colon cancer cells = experiment: Cell growth inhibition, Sulforhodamine B assay, HT29; assay type: cell-based; conditions: Homo sapiens, HT-29, 120 h, 5 days culture, SRB assay, read-out: Cell Line GI50 Range HT29
Method: as §1, §2, §3

[4] = system: HCT116 colon cancer cells; experiment: Cell growth inhibition, Sulforhodamine B assay, HCT116; assay type: cell-based; conditions: Homo sapiens, HCT-116, 120 h, 5 days culture, SRB assay, read-out: Cell Line GI50 Range HCT116
Method: as §1, §2, §3

[5] = system: MDA-MB-468 breast cancer cells; experiment: Cell growth inhibition, Sulforhodamine B assay, MDA-MB-468; assay type: cell-based; conditions: Homo sapiens, 120 h, 5 days culture, SRB assay, read-out: Cell Line GI50 Range MDA-MB-468

SMILES	GI50 [1]	GI50 [2]	GI50 [3]	pIC50 (human TTK)	pIC50 (Aurora B)	pIC50 (human PLK4)	GI50 (HT29 colon cancer cells)	GI50 [4]	GI50 [5]
CN1CCN(C(=O)c2cccc(-c3n[nH]c4ccc(NC(=O)C(c5ccsc5)N5CCCC5)cc34)c2)CC1 (centres unmarked) [Example A96, N-(3-(3-(4-Methylpiperazine-1-carbonyl)phenyl)-1H-indazol-5-yl)-2-(pyrrolidin-1-yl)-2-(thiophen-3-yl)acetamide]	5 to 20 µM	5 to 20 µM	5 to 20 µM	≥ 5.30	4.30 to 5.30	≥ 5.30	5 to 20 µM	5 to 20 µM	5 to 20 µM
CN1CCC(Oc2ccc(-c3n[nH]c4ccc(NC(=O)C(c5ccsc5)N5CCCC5)cc34)cc2N(C)C)CC1 (centres unmarked) [Example A113, N-(3-(3-(dimethylamino)-4-((1-methylpiperidin-4-yl)oxy)phenyl)-1H-indazol-5-yl)-2-(pyrrolidin-1-yl)-2-(thiophen-3-yl)acetamide]	≤ 5 µM	≤ 5 µM	≤ 5 µM	≥ 5.30	≥ 5.30	≥ 5.30	≤ 5 µM	≤ 5 µM	≤ 5 µM
CN1CCOC(c2ccc(-c3n[nH]c4ccc(C(=O)NC(c5ccccc5)C5CC5)cc34)cc2)C1 (centres unmarked) [Example A139, N-(cyclopropyl(phenyl)methyl)-3-(4-(4-methylmorpholin-2-yl)phenyl)-1H-indazole-5-carboxamide]	≤ 5 µM	≤ 5 µM	≤ 5 µM	≥ 5.30	≥ 5.30	≥ 5.30	≤ 5 µM	≤ 5 µM	≤ 5 µM
CN1CCC(Oc2ccc(-c3n[nH]c4ccc(C(=O)NCc5ccccc5CN5CCOCC5)cc34)cc2)CC1 [Example A109, 3-(4-(1-Methylpiperidin-4-yloxy)phenyl)-N-(2-(morpholinomethyl)benzyl)-1H-indazole-5-carboxamide]	≤ 5 µM	≤ 5 µM	≤ 5 µM	≥ 5.30	≥ 5.30	≥ 5.30	≤ 5 µM	≤ 5 µM	≤ 5 µM
CN1CCC(Oc2ccc(-c3n[nH]c4ccc(NC(=O)C(c5ccccc5)C5CCCC5)cc34)cc2)CC1 (centres unmarked) [Example A148, 2-cyclopentyl-N-(3-(4-((1-methylpiperidin-4-yl)oxy)phenyl)-1H-indazol-5-yl)-2-phenylacetamide]	≤ 5 µM	≤ 5 µM	≤ 5 µM	≥ 5.30	≥ 5.30	≥ 5.30	≤ 5 µM	≤ 5 µM	≤ 5 µM
CN1CCC(Oc2ccc(-c3n[nH]c4ccc(C(=O)NCc5ccccc5N5CCOCC5)cc34)cc2)CC1 [Example A108, 3-(4-(1-Methylpiperidin-4-yloxy)phenyl)-N-(2-morpholinobenzyl)-1H-indazole-5-carboxamide]	≤ 5 µM	≤ 5 µM	≤ 5 µM	≥ 5.30	≥ 5.30	≥ 5.30	≤ 5 µM	≤ 5 µM	≤ 5 µM
CN1CCN(C)c2ccc(-c3n[nH]c4ccc(NC(=O)C(c5ccsc5)N5CCCC5)cc34)cc2C1 (centres unmarked) [Example A93, N-(3-(1,4-dimethyl-2,3,4,5-tetrahydro-1H-benzo[e][1,4]diazepin-7-yl)-1H-indazol-5-yl)-2-(pyrrolidin-1-yl)-2-(thiophen-3-yl)acetamide]	5 to 20 µM	≤ 5 µM	≤ 5 µM	≥ 5.30	≥ 5.30	≥ 5.30	≤ 5 µM	≤ 5 µM	≤ 5 µM
CN1CCC(Oc2cccc(-c3n[nH]c4ccc(NC(=O)C(c5ccsc5)N5CCCC5)cc34)c2)CC1 (centres unmarked) [Example A99, N-(3-(3-((1-methylpiperidin-4-yl)oxy)phenyl)-1H-indazol-5-yl)-2-(pyrrolidin-1-yl)-2-(thiophen-3-yl)acetamide]	≤ 5 µM	≤ 5 µM	≤ 5 µM	≥ 5.30	≥ 5.30	≥ 5.30	≤ 5 µM	≤ 5 µM	≤ 5 µM
Cc1ccccc1C(NC(=O)c1ccc2[nH]nc(-c3ccc(OC4CCN(C)CC4)cc3)c2c1)C(C)C (centres unmarked) [Example A143, N-(2-methyl-1-(o-tolyl)propyl)-3-(4-((1-methylpiperidin-4-yl)oxy)phenyl)-1H-indazole-5-carboxamide]	≤ 5 µM	≤ 5 µM	≤ 5 µM	≥ 5.30	≥ 5.30	≥ 5.30	≤ 5 µM	≤ 5 µM	≤ 5 µM
CN1CCC(Oc2ccc(-c3n[nH]c4ccc(NC(=O)C5OCCc6ccccc65)cc34)cc2)CC1 (centres unmarked) [Example A146, N-(3-(4-(1-Methylpiperidin-4-yloxy)phenyl)-1H-indazol-5-yl)isochroman-1-carboxamide]	≤ 5 µM	≤ 5 µM	≤ 5 µM	≥ 5.30		≥ 5.30	≤ 5 µM	≤ 5 µM	≤ 5 µM
CCc1cccc(CC)c1NC(=O)Nc1ccc2[nH]nc(-c3ccc4c(c3)CN(C)CCO4)c2c1 [Example A114, 1-(2,6-diethylphenyl)-3-(3-(4-methyl-2,3,4,5-tetrahydrobenzo[f][1,4]oxazepin-7-yl)-1H-indazol-5-yl)urea]	5 to 20 µM	≤ 5 µM	≤ 5 µM	≥ 5.30		≥ 5.30	≤ 5 µM	≤ 5 µM	≤ 5 µM
O=C(NC(c1ccccc1)C1CC1)c1ccc2[nH]nc(-c3ccc(OCCN4CCOCC4)cc3)c2c1 (centres unmarked) [Example A140, N-(cyclopropyl(phenyl)methyl)-3-(4-(2-morpholinoethoxy)phenyl)-1H-indazole-5-carboxamide]	≤ 5 µM	≤ 5 µM	≤ 5 µM	≥ 5.30		≥ 5.30	≤ 5 µM	≤ 5 µM	≤ 5 µM
COCCN1CCC(Oc2ccc(-c3n[nH]c4ccc(C(=O)N[C@H](C)c5ccccc5F)cc34)cc2)CC1 [Example A129, (R)—N-(1-(2-fluorophenyl)ethyl)-3-(4-((1-(2-methoxyethyl)piperidin-4-yl)oxy)phenyl)-1H-indazole-5-carboxamide]	5 to 20 µM	≤ 5 µM	≤ 5 µM	≥ 5.30		≥ 5.30	≤ 5 µM	≤ 5 µM	≤ 5 µM
